According to patent US20250084063A1 (Incyte Corporation, priority 2023, published 2025):
pIC50: −log10 of the molar value.

Legend:
[1] = target: T1, MRGPRX2 (Homo sapiens, UniProt Q96LB1); experiment: MRGPRX2 IP1 HTRF assay; type: cell-based; set-up: host or cells: CHO-K1; details: CHO-K1 cells stably expressing human MRGPRX2; IP1 accumulation, agonist Cortistatin 14 1 μM
T1 sequence (Q96LB1 1-330): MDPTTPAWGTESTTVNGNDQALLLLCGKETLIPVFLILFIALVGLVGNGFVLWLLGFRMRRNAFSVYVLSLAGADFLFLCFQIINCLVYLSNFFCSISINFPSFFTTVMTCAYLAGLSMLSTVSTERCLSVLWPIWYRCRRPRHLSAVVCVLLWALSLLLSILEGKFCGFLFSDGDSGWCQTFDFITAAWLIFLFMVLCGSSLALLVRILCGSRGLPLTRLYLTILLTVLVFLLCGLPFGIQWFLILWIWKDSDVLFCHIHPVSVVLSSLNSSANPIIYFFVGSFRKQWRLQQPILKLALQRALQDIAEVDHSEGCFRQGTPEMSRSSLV
From the text: Example B: MRGPRX2 IP1 HTRF Assay
This assay measures compound inhibition of myo-Inositol 1 phosphate (IP1) accumulation in CHO-K1 cells. Chinese hamster ovary (CHO-K1) cells stably expressing human MRGPRX2 were purchased from GenScript (Piscataway, NJ).
For the HTRF IP1 determination, an IP-One GqKit (Perkin Elmer Cisbio, Waltham, MA), which includes all reagents and buffers in this protocol, was used. The cells were maintained in culture medium (Ham's F-12K) containing 10% (v/v) FBS, and 200 μg/mL Zeocin. For the assay, the cells were harvested and resuspended in culture medium with 2% FBS and without Zeocin, then were passed through a 40 μm filter. Cells were added at 20000 cells in a 5 μL/well to a 384-well white small volume cell culture plate (Greiner VWR, Radnor, PA) which contained 50 nL/well of test compound serially diluted at a selected concentration range in DMSO. 5 μL/well of prepared 2× Stimulation Buffer2 was then added to plates and was incubated at 37° C. with 5% CO2 for 1 h. 5 μL/well of agonist Cortistatin 14 (Bio-TechneR&D Systems, Minneapolis, MN) in 1× Stimulation Buffer 2, for a 1 μM final concentration, was then added to plates and incubated at 37° C. with 5% CO2 for 1 h. 6 μL/well of 1:20 diluted Detection Reagent Mix (d2 and Cryptate) was added to the plates and incubated for 1 h in the dark. Plates were read on the PHERAstar microplate reader (BMG Labtech Cary, NC) to determine the HTRF ratio of the acceptor and donor emission signals. The IP1 concentrations were calculated from a standard curve following the IP-One GQ kit instructions. Wells with DMSO only and wells with high concentration of reference antagonist were used as controls for normalization. Compound IC50 curves were globally fitted with 3- or 4-parameter Hill equation in a Genedata Screener (Genedata Basel, Switzerland).

[2] = target: T1, MRGPRX2; experiment: MRGPRX2 β-Arrestin assay; type: cell-based; set-up: host or cells: PathHunter CHO-K1; details: PathHunter CHO-K1 MRGPRX2 β-Arrestin cell line; agonist Cortistatin 14 0.25 μM
From the text: Example C: MRGPRX2 β-Arrestin Assay
This assay measures compound inhibition of β-Arrestin recruitment, which is part of the G protein-independent pathway that results from the ligand-activated GPCR phosphorylation by specific GPCR kinases. The PathHunter CHO-K1 MRPGRX2 B-Arrestin Cell line stably expressing ProLink tagged MRGPRX2 and Enzyme Acceptor Tagged B-Arrestin was purchased from Eurofins DiscoverX, (Fremont, CA).
The cells were maintained in culture medium from the Europhins DiscoverX Cell Culture Kit-107 which includes FBS, hygromycin B and G418. For the assay, the cells were harvested and were resuspended with Cell Plating Reagent 2 (Eurofins DiscoverX). Cells were added 10000 cells in 25 µL/well to a 384-well black cell culture plate (Greiner VWR, Radnor, PA) which contained 125 nL/well of compound at a selected serially diluted concentration range or DMSO. The plate was incubated at 37° C. with 5% CO2 for 1 h. 2 μL/well of agonist Cortistatin 14 was diluted in Protein Dilution Buffer, (Eurofins DiscoverX) for a final concentration of 0.25 μM, was added and the plate was incubated at 37° C. with 5% CO2 for 90 min. 14 μL/well of Detection Reagent Mix (PathHunter Detection Kit, Eurofins DiscoverX) was added to the plates and further incubated for 1 h in the dark. Plates were read on the PHERAstar microplate reader (BMG Labtech Cary, NC) measuring luminescence 0.1 to 1 second per well. Data was normalized using DMSO only wells and wells with high concentration of reference antagonist as controls. Compound IC50 curves were globally fitted with 3- or 4-parameter Hill equation in a Genedata Screener (Genedata Basel, Switzerland).

A pIC50 [1] of 7.00 to 10.00 and a pIC50 [2] of 7.00 to 10.00 were found for O=C(N[C@H]1CC[C@H](O)CC1)N1CCC(CNc2cc(C(F)(F)F)nc3ccc(Cl)cc23)(c2ccc(F)cc2)CC1 [Example 87, 4-(((6-Chloro-2-(trifluoromethyl)quinolin-4-yl)amino)methyl)-4-(4-fluorophenyl)-N-((1r,4r)-4-hydroxycyclohexyl) piperidine-1-carboxamide] in this work.

A pIC50 [1] of 7.00 to 10.00 and a pIC50 [2] of 7.00 to 10.00 were found for C[C@]1(O)CC[C@@H](NC(=O)N2CC(CNc3cc(C(F)(F)F)nc4ccc(Cl)cc34)(n3cc(F)cn3)C2)CC1 [Example 89, 3-(((6-Chloro-2-(trifluoromethyl)quinolin-4-yl)amino)methyl)-3-(4-fluoro-1H-pyrazol-1-yl)-N-((1s,4s)-4-hydroxy-4-methylcyclohexyl)azetidine-1-carboxamide] in this work.

A pIC50 [1] of 7.00 to 10.00 and a pIC50 [2] of 7.00 to 10.00 were found for NS(=O)(=O)NC1CC(CNc2cc(C(F)(F)F)nc3ccc(Cl)cc23)(c2ccccc2)C1 (stereo not shown) [Example 73, N-((3-Aminosulfonylamino-1-phenylcyclobutyl)methyl)-6-chloro-2-(trifluoromethyl)quinolin-4-amine] in this work.

A pIC50 [1] of 7.00 to 10.00 and a pIC50 [2] of 7.00 to 10.00 were found for Fc1ccc(C2(CNc3cc(C(F)(F)F)nc4ccc(Cl)cc34)CN(Cc3cn[nH]c3)C2)cc1 [Example 93, N-((1-((1H-Pyrazol-4-yl)methyl)-3-(4-fluorophenyl)azetidin-3-yl)methyl)-6-chloro-2-(trifluoromethyl)quinolin-4-amine] in this work.

A pIC50 [1] of 7.00 to 10.00 and a pIC50 [2] of 7.00 to 10.00 were found for O=C(N[C@H]1C[C@H](O)C1)N1CCC(CNc2cc(C(F)(F)F)nc3ccc(Cl)cc23)(c2ccc(F)cc2)CC1 [Example 86, 4-(((6-Chloro-2-(trifluoromethyl)quinolin-4-yl)amino)methyl)-4-(4-fluorophenyl)-N-((1r,3r)-3-hydroxycyclobutyl) piperidine-1-carboxamide] in this work.

A pIC50 [1] of 7.00 to 10.00 and a pIC50 [2] of 7.00 to 10.00 were found for O=C(N[C@H]1CC[C@H](O)CC1)N1CC(CNc2cc(C(F)(F)F)nc3ccc(Cl)cc23)(n2cc(F)cn2)C1 [Example 88, 3-(((6-Chloro-2-(trifluoromethyl)quinolin-4-yl)amino)methyl)-3-(4-fluoro-1H-pyrazol-1-yl)-N-((1r,4r)-4-hydroxycyclohexyl)azetidine-1-carboxamide] in this work.

A pIC50 [1] of 7.00 to 10.00 and a pIC50 [2] of 7.00 to 10.00 were found for O=C(O)C1CCC(CNc2cc(C(F)(F)F)nc3ccc(Cl)cc23)(c2ccccc2)CC1 (stereo not shown) [Example 67, 4-(((6-Chloro-2-(trifluoromethyl)quinolin-4-yl)amino)methyl)-4-phenylcyclohexane-1-carboxylic acid] in this work.

A pIC50 [1] of 7.00 to 10.00 and a pIC50 [2] of 7.00 to 10.00 were found for [O-][n+]1ccc(CN2CC(CNc3cc(C(F)(F)F)nc4ccc(Cl)cc34)(c3ccc(F)cc3)C2)cc1 [Example 95, 4-((3-(((6-Chloro-2-(trifluoromethyl)quinolin-4-yl)amino)methyl)-3-(4-fluorophenyl)azetidin-1-yl)methyl)pyridine 1-oxide] in this work.

A pIC50 [1] of 7.00 to 10.00 and a pIC50 [2] of 7.00 to 10.00 were found for NC1CC(CNc2cc(C(F)(F)F)nc3ccc(Cl)cc23)(c2ccccc2)C1 (stereo not shown) [Example 96, N-((3-Amino-1-phenylcyclobutyl)methyl)-6-chloro-2-(trifluoromethyl)quinolin-4-amine] in this work.

A pIC50 [1] of 7.00 to 10.00 and a pIC50 [2] of 7.00 to 10.00 were found for OC1(C(F)(F)F)CC(CNc2cc(C(F)(F)F)nc3ccc(Cl)cc23)(c2ccccc2)C1 (stereo not shown) [Example 66, 3-(((6-Chloro-2-(trifluoromethyl)quinolin-4-yl)amino)methyl)-3-phenyl-1-(trifluoromethyl)cyclobutan-1-ol] in this work.

A pIC50 [1] of 7.00 to 10.00 and a pIC50 [2] of 7.00 to 10.00 were found for O=C(N[C@@H]1CC[C@@H](O)C1)N1CC(CNc2cc(C(F)(F)F)nc3ccc(Cl)cc23)(c2ccc(F)cc2)C1 [Example 90, 3-(((6-Chloro-2-(trifluoromethyl)quinolin-4-yl)amino)methyl)-3-(4-fluorophenyl)-N-((1R,3R)-3-hydroxycyclopentyl)azetidine-1-carboxamide] in this work.
